From patent EP0427518B1, “NMDA-Blocking compounds, pharmaceutical compositions, their preparation and use” (priority 1989, dated 1991)

How the values were obtained:
Sabra mice [1] = assay: Induction of stereotypy (stereotypy gradient of Feigenbaum et al.); assay type: in vivo; conditions: for Stereotypy Gradient: HU-211 2.5 mg/kg s.c., mean ±SEM
Description: (§1) As will be shown hereafter, the pharmacological profile of HU-211, and other compounds constituting the active ingredients of the present compositions, includes the induction of stereotypy, locomotor hyper-activity and tachycardia in mice (Table 1). […] This possibility was explored by examining the activity of the compounds in protecting against the tremorogenic, convulsive and lethal effects of NMDA and NMDA agonists in mice. Such effects are counteracted by virtually all NMDA antagonists.

Sabra mice [2] = assay: Locomotor activity (body displacement over 7-cm squares); assay type: in vivo; conditions: HU-211 2.5 mg/kg s.c., mean ±SEM
Description: as §1

Sabra mice [3] = assay: Induction of tachycardia (heart rate); assay type: in vivo; conditions: HU-211 2.5 mg/kg s.c., mean ±SEM
Description: as §1

C-57 Black mice = assay: Inhibition of tremorogenic, convulsive and lethal effects of NMDA in C-57 Black mice; assay type: in vivo
Protocol: Sabra mice (an Israeli heterogenous strain) were pretreated with either vehicle alone (control) or HU-211 (1.25 or 2.50 mg/kg; s.c.), followed by NMDA (200 mg/kg; s.c.). […] Similar experiments were performed using C-57 Black mice, in which the dose of NMDA was decreased (100 mg/kg; s.c.). Counteraction by HU-211 of the NMDA-induced effects was more pronounced in the latter strain (which is more sensitive than Sabra mice to the effects of NMDA). In the control series of both strains, which received NMDA without HU-211, all animals died in less than 10 min. following seizure onset.
The experiments described in Table 2 were repeated with C-57 Black mice, HU-211 replaced by the compound of formula (II) (compound Vb, U.S. Patent No. 4,179,517) and the compound of formula (IIa)(compound XIb, ibid.). NMDA (100 mg/kg) was administered to the mice.
In addition, the experiments were repeated with the novel compound HU-247.

BALB/C mice [4] = assay: Protection against NMDA toxicity; assay type: in vivo; conditions: for % alive / No.alive total / Onset time of clinical signs: NMDA 125 mg/kg s.c., 120 min post HU-211
Protocol: (§2) BALB/C mice (20 g) were subcutaneously injected with picrotoxin, strychnine and NMDA in doses of about LD₉₀ and subsequent clinical observations for the occurrence of convulsions and death were carried out within 20 min. The number of mice used and the mortality were assessed at the highest doses administered.

BALB/C mice [5] = assay: Protection against strychnine toxicity; assay type: in vivo; conditions: Strychnine 1 mg/kg s.c.; vehicle Emulphor; HU-211 10 mg/kg; 75 min post HU-211
Protocol: as §2

BALB/C mice [6] = assay: Protection against picrotoxin toxicity; assay type: in vivo; conditions: Picrotoxin 4 mg/kg s.c.; vehicle Emulsion; HU-211 10 mg/kg; 120 min post HU-211
Protocol: as §2

[7] = even at doses several thousand times higher than ED₅₀ of HU-210; cited from earlier work
[8] = C-57 Black mice, HU-211 1.25 mg/kg s.c. 75 min prior to NMDA 100 mg/kg s.c.
[9] = C-57 Black mice, HU-211 2.50 mg/kg s.c. 75 min prior to NMDA 100 mg/kg s.c.
[10] = vehicle Emulphor, HU-211 5 mg/kg
[11] = vehicle Emulsion, HU-211 5 mg/kg
[12] = vehicle Emulsion, HU-211 10 mg/kg

With `CCCCCCC(C)(C)c1cc(O)c2c(c1)OC(C)(C)[C@H]1CC=C(CO)C[C@H]21` [HU-211, (+)-(3S,4S)-1,1-dimethylheptyl homolog of 7-hydroxy-Δ⁶-tetrahydrocannabinol] the “Stereotypy Gradient” value (Sabra mice [1]; time 0 min) was 0.4±0.1, the “Stereotypy Gradient” value (Sabra mice [1]; time 15 min) was 1.3±0.2 and the “Stereotypy Gradient” value (Sabra mice [1]; time 30 min) was 2.2±0.1. The “Stereotypy Gradient” value (Sabra mice [1]; time 45 min) was 0.7±0.2, the “Stereotypy Gradient” value (Sabra mice [1]; time 60 min) was 0.6±0.3 and the “induction of stereotypy, locomotor hyperactivity and tachycardia” value (Sabra mice [1]; at about 25 mg/kg body weight, summary statement covering stereotypy, locomotor and heart rate tests, mice) was “induce stereotypy, locomotor hyperactivity and tachycardia”. For the same compound, the “Locomotor Activity” value (Sabra mice [2]; time 0 min, score = squares crossed) was 32.0±6.0, the “Locomotor Activity” value (Sabra mice [2]; time 15 min) was 45.0±2.0 and the “Locomotor Activity” value (Sabra mice [2]; time 30 min) was 37.0±4.04. For the same compound, the “Locomotor Activity” value (Sabra mice [2]; time 45 min) was 28.0±13.0, the “Locomotor Activity” value (Sabra mice [2]; time 60 min) was 17.0±7 and the “Heart Rate” value (Sabra mice [3]; time 0 min) was 169.2±2.5 per min. The “Heart Rate” value (Sabra mice [3]; time 75 min) was 186.8±2.5 per min, the “mice that exhibited no tremors or seizures and stayed alive for more than four days following NMDA administration” value (C-57 Black mice; C-57 Black mice pretreated with HU-211 (2.50 mg/kg s.c.), NMDA 100 mg/kg s.c.) was “six of the seven” and the Time until death (C-57 Black mice; [8]) was 18.6 ± 4.2 min. The “Time until first seizure” value (C-57 Black mice; [8]) was 13.2 ± 2.6 min, the “Time until first tremor” value (C-57 Black mice; [8]) was 12.0 ± 2.6 min and the Time until death (C-57 Black mice; [9]) was over 5800 min. The “Time until first seizure” value (C-57 Black mice; [9]) was 5800 min, the “Time until first tremor” value (C-57 Black mice; [9]) was over 5800 min and the “persistence of the anti-NMDA effects” value (C-57 Black mice; C-57 Black mice, repeated NMDA 100 mg/kg one day later in the six surviving mice, preliminary results) was “more than 24 h”. For the same compound, the “blockade of NMDA-induced tremor, seizure and lethality” value (C-57 Black mice; at about 2.5 mg/kg body weight, summary statement, mouse strain not given) was “potent blockers”, the “protection against NMDA toxicity, Emulsion compared with Emulphor preparation” value (BALB/C mice [4]; HU-211 carried in the Emulsion versus the Emulphor preparation) was “better protection” and the “% alive” value (BALB/C mice [4]; [10]) was 20%. For the same compound, the No.alive total (BALB/C mice [4]; [10]) was 2/10, the “Onset time of clinical signs” value (BALB/C mice [4]; [10]) was 19 min and the “% alive” value (BALB/C mice [4]; [11]) was 60%. For the same compound, the No.alive total (BALB/C mice [4]; [11]) was 4/7, the “Onset time of clinical signs” value (BALB/C mice [4]; [11]) was 7 min and the “% alive” value (BALB/C mice [4]; [12]) was 80%. The No.alive total (BALB/C mice [4]; [12]) was 8/10, the “Onset time of clinical signs” value (BALB/C mice [4]; [12]) was 10 min and the “% alive” value (BALB/C mice [5]) was 80%. The No.alive total (BALB/C mice [5]) was 8/10, the “% alive” value (BALB/C mice [6]) was 50% and the No.alive total (BALB/C mice [6]) was 4/8. For the same compound, the “Onset time of clinical signs” value (BALB/C mice [6]) was 54 min and the cannabimimetic activity [7] was “inactive”.
